Data reported in article PMC12716005, “Design, Synthesis, and Molecular Docking of Triazole‐Coumarin Hybrids as Potent Breast Cancer Inhibitors Targeting Cell Cycle and Apoptosis” (Chemistry & Biodiversity, 2025).
One block for each compound: values may come before it.

What was measured:
[1] = test system: MCF‐10A human breast epithelial cells; test: MTT cell viability assay, MCF-10A; format: cell-based; conditions: 72 h, non-tumorigenic cells
Protocol: (§1) Human cell lines, breast cancer MCF‐7 and MDA‐MB‐231, along with the human breast epithelial cell line (MCF‐10A), were purchased from ATCC (Rockville, USA). The necessary supplies, including fetal bovine serum (FBS), RPMI 1640 medium, 3‐(4,5‐dimethylthiazol‐2‐yl)‐2,5‐diphenyltetrazolium bromide (MTT), and DMSO, were provided by Merck (Darmstadt, Germany). The cells were maintained at 37°C in a CO2─enriched chamber, utilizing RPMI 1640 medium fortified with 10% FBS and 100 U/mL of penicillin/streptomycin [30].
(§2) Cell survival was evaluated using the MTT technique, which measures cellular redox activity. In metabolically active cells, MTT (3‐(4,5‐dimethylthiazol‐2‐yl)) is reduced to form an insoluble purple formazan. This formazan was solubilized, and its concentration was quantified by measuring optical density. MTT, sourced as a powder from Sigma, was made with phosphate‐buffered saline (PBS) in a 5 mM standard solution. The density at which cells were propagated was 10⁴ cells per well in 96‐well plates. Triazole‐coumarin hybrids were dissolved in DMSO, and varying concentrations (0.1–200 µM) of these derivatives were applied to the cells. Following treatment for 24, 48, and 72 h, 20 µL of the MTT mix was applied to each well, and the wells were then incubated for 4 h at thirty‐seven degrees in a CO2 incubator. After incubating, the formazan crystals were dissolved by adding 200 µL of DMSO after the MTT mixture was withdrawn. The absorption rate was recorded at 590 nm utilizing a Tecan spectrophotometer. Cisplatin served as the reference drug. […] To determine the selective toxicity of the triazole‐coumarin hybrids against breast cancer cells, the formula was used to compute the SI = IC50 for normal cells/IC50 for cancer cells.

[2] = test system: MCF‐7 breast cancer cells; test: MTT cell viability assay, MCF-7; format: cell-based, human; conditions: for IC50: MTT, 72 h
Protocol: as §1, §2

[3] = test system: MDA‐MB‐231 breast cancer cells; test: MTT cell viability assay, MDA-MB-231; format: cell-based, human; conditions: for IC50: MTT, 72 h
Protocol: as §1, §2

MCF‐7 = test system: MCF‐7; design: method as in PMID 30556027; conditions: literature ref 28; cited from earlier work
Bcl─2 mRNA [4] = test: qRT-PCR Bcl-2 mRNA in MCF-7; format: cell-based, human; conditions: MCF-7, IC50 value of 5f, 72 h
Protocol: (§3) To figure out the mRNA levels of apoptosis‐related proteins B‐cell lymphoma 2 (Bcl─2), Bcl─2‐associated X protein (Bax), cyclin‐dependent kinase 2 (CDK2), and Cyclin E, total mRNA was extracted from cells treated with compound 5f using Trizol reagent (Sigma). Complementary DNA (cDNA) synthesis was conducted from total mRNA using a Qiagen cDNA synthesis kit as described by the manufacturer. The primers listed below (350 nM concentration) were utilized: Bcl─2; forward ([…]); reverse ([…]), Bax; forward ([…]); reverse ([…]), CDK2; forward ([…]); reverse (TGGCTGAAATCCGCTTGTT), Cyclin E; forward ([…]); reverse ([…]), human GAPDH; forward ([…]); reverse (AGATGGTGATGGGCTTCCC). The PCR reaction mixture consisted of 1X buffer, 0.2 mM dNTPs, 1.6 mM MgCl2, 50 pmol of primer sets, cDNA, and 0.25 U of Taq polymerase. The thermal cycling conditions included an initial denaturation at 95°C for 60 s, followed by 50 cycles comprising 15 s of denaturation at 95°C, 15 s of annealing at 60°C, and 60 s of extension at 72°C. The median CT value of GAPDH, the naturally present housekeeping gene, was utilized to normalize the cycle threshold (CT) values. Levels of compared transcription were established using the comparative ^ΔΔCT method.

Bcl─2 mRNA [5] = test: qRT-PCR Bcl-2 mRNA in MDA-MB-231; format: cell-based, human; conditions: MDA-MB-231, IC50 value of 5f, 72 h
Protocol: as §3

[6] = test system: MCF‐7 breast cancer cells; test: Cell cycle analysis by flow cytometry (PI), MCF-7; format: cell-based, human; conditions: 72 h
Protocol: (§4) In 24‐well plates, cells were introduced at a concentration of 5×10⁵ colonies per plate, and compound 5f was administered at its IC50 concentration for 72 h. The cell cycle phases were evaluated using the Cayman Cell Cycle Phase Determination Kit. Following treatment, applying cold PBS, cells were rinsed, trypsinized, and 5 min of centrifugation at 500 × g. The resulting pellets were resuspended in 250 µL of fixative and held at −20°C for 2 h. After a second centrifugation at 500 × g for 5 min, washing was carried out with PBS and stained with propidium iodide (PI) for 30 min at room temperature. Flow cytometric analysis of the cell cycle was implemented using a BD Accuri C6 flow cytometer, with detection wavelengths ranging from 488 to 650 nm.

[7] = test system: MDA‐MB‐231 breast cancer cells; test: Cell cycle analysis by flow cytometry (PI), MDA-MB-231; format: cell-based, human; conditions: 72 h
Protocol: as §4

[8] = test system: MCF‐7 breast cancer cells; test: DNA fragmentation (Cell Death Detection kit), MCF-7; format: cell-based, human; conditions: 72 h, p < 0.05
Protocol: (§5) As an apoptotic signature, DNA fragmentation was evaluated using the Cell Death Detection kit (Sigma). In 96‐well plates, cancerous cells were cultivated at a density of 1×10⁵ cells per well, and compound 5f was applied at its IC50 concentration for 72 h. In brief, 20 µL of cell lysates were transferred to streptavidin‐coated wells preloaded with anti‐DNA antibodies and held at RT for 2 h. Three washes afterward with the provided washing buffer, 2,2‐azino‐di‐(3‐ethylbenzthiazoline sulfonate) diammonium salt was put into every well. Absorbance was determined at 405 nm employing a spectrophotometer.

[9] = test system: MDA‐MB‐231 breast cancer cells; test: DNA fragmentation (Cell Death Detection kit), MDA-MB-231; format: cell-based, human; conditions: 72 h, p < 0.05
Protocol: as §5

Bax mRNA [10] = test: qRT-PCR Bax mRNA in MCF-7; format: cell-based, human; conditions: MCF-7, IC50 value of 5f, 72 h
Protocol: as §3

Bax mRNA [11] = test: qRT-PCR Bax mRNA in MDA-MB-231; format: cell-based, human; conditions: MDA-MB-231, IC50 value of 5f, 72 h
Protocol: as §3

[12] = SI = IC50 for normal cells (MCF-10A)/IC50 for cancer cells

IC50 ([2]; Homo sapiens, MCF7, 72 h): 49.8 ± 2.2 µM
IC50 ([3]; Homo sapiens, MDA-MB-231, 72 h): 87 ± 2 µM
SMILES: O=C(Nn1c(Cc2ccccc2)n[nH]c1=O)c1cc2c(ccc3ccccc32)oc1=O [Derivative 5d, N‐(3‐Benzyl‐5‐oxo‐1,5‐dihydro‐4H‐1,2,4‐triazol‐4‐yl)‐3‐oxo‐3H‐benzo[f]chromene‐2‐carboxamide]
IC50 ([1]; Homo sapiens, MCF-10A): 38.2 ± 0.7 µM

SMILES: N.N.[Cl][Pt][Cl] [Cisplatin, cisplatin, reference compound]
IC50 [1]: 12.2 ± 0.8 µM
IC50 [2]: 9.3 ± 1.2 µM
IC50 [3]: 8.7 ± 0.6 µM

IC50 ([2]; Homo sapiens, MCF7, 72 h): 76.6 ± 2.1 µM
IC50 ([3]; Homo sapiens, MDA-MB-231, 72 h): 95.8 ± 2.4 µM
SMILES: CCc1n[nH]c(=O)n1NC(=O)c1cc2c(ccc3ccccc32)oc1=O [Derivative 5b, N‐(3‐Ethyl‐5‐oxo‐1,5‐dihydro‐4H‐1,2,4‐triazol‐4‐yl)‐3‐oxo‐3H‐benzo[f]chromene‐2‐carboxamide]
IC50 ([1]; Homo sapiens, MCF-10A): 25.2 ± 1.5 µM
apoptotic effect in MCF‐7 (MCF‐7): altered the mitochondrial membrane potential in MCF‐7, causing apoptotic cell death

IC50 ([2]; Homo sapiens, MCF7, 72 h): 22.5 ± 1.8 µM
IC50 ([3]; Homo sapiens, MDA-MB-231, 72 h): 18.4 ± 1.16 µM
SMILES: Cc1n[nH]c(=O)n1NC(=O)c1cc2c(ccc3ccccc32)oc1=O [Derivative 5a, N‐(3‐Methyl‐5‐oxo‐1,5‐dihydro‐4H‐1,2,4‐triazol‐4‐yl)‐3‐oxo‐3H‐benzo[f]chromene‐2‐carboxamide]
IC50 ([1]; Homo sapiens, MCF-10A): 12.5 ± 1 µM

IC50 ([2]; Homo sapiens, MCF7, 72 h): 68.9 ± 3.1 µM
IC50 ([3]; Homo sapiens, MDA-MB-231, 72 h): 61.7 ± 0.4 µM
SMILES: Cc1ccc(Cc2n[nH]c(=O)n2NC(=O)c2cc3c(ccc4ccccc43)oc2=O)cc1 [Derivative 5e, N‐(3‐(4‐Methylbenzyl)‐5‐oxo‐1,5‐dihydro‐4H‐1,2,4‐triazol‐4‐yl)‐3‐oxo‐3H‐benzo[f]chromene‐2‐carboxamide]
IC50 ([1]; Homo sapiens, MCF-10A): 40.6 ± 2.1 µM

IC50 ([2]; Homo sapiens, MCF7, 72 h): < 25 µM
IC50 [2]: 22.1 ± 0.42 µM
IC50 ([3]; Homo sapiens, MDA-MB-231, 72 h): < 25 µM
IC50 [3]: 15.7 ± 0.2 µM
SMILES: O=C(Nn1c(Cc2ccc(Cl)cc2)n[nH]c1=O)c1cc2c(ccc3ccccc32)oc1=O [Derivative 5f, N‐(3‐(4‐Chlorobenzyl)‐5‐oxo‐1,5‐dihydro‐4H‐1,2,4‐triazol‐4‐yl)‐3‐oxo‐3H‐benzo[f]chromene‐2‐carboxamide]
IC50 ([1]; Homo sapiens, MCF-10A): 61.9 ± 0.6 µM
Bcl─2 mRNA level, downregulated (Bcl─2 mRNA [4]): 2.1 fold
selectivity index (SI) MCF‐7 [2, 12]: 2.8
Bcl─2 mRNA level, downregulated (Bcl─2 mRNA [5]): 3.1 fold
Cell cycle kinetics, M ([6]; MCF-7, IC50 value of 5f): 22.9
Cell cycle kinetics, S ([6]; MCF-7, IC50 value of 5f): 36.1
phase of cell cycle block ([6]; MCF-7, IC50 value): S phase
Cell cycle kinetics, G0/G1 ([7]; MDA-MB-231, IC50 value of 5f): 0.8
Cell cycle kinetics, M ([7]; MDA-MB-231, IC50 value of 5f): 20.0
Cell cycle kinetics, S ([7]; MDA-MB-231, IC50 value of 5f): 36.6
phase of cell cycle block ([7]; MDA-MB-231, IC50 value): S phase
DNA fragmentation induction ([8]; MCF-7, 1 µM): 1.65 fold
DNA fragmentation induction ([8]; MCF-7, 10 µM): 3 fold
DNA fragmentation induction ([8]; MCF-7, 50 µM): 4.1 fold
DNA fragmentation induction ([9]; MDA-MB-231, 1 µM): 1.7 fold
DNA fragmentation induction ([9]; MDA-MB-231, 10 µM): 2.15 fold
DNA fragmentation induction ([9]; MDA-MB-231, 50 µM): 4.15 fold
selectivity index (SI) MDA‐MB‐231 [3, 12]: 3.9
Bax mRNA level, upregulated (Bax mRNA [10]): 2.35 fold
Bax mRNA level, upregulated (Bax mRNA [11]): 2.35 fold

IC50 ([2]; Homo sapiens, MCF7, 72 h): 25.9 ± 0.8 µM
IC50 ([3]; Homo sapiens, MDA-MB-231, 72 h): 64 ± 1.4 µM
SMILES: O=C(Nn1c(-c2ccccc2)n[nH]c1=O)c1cc2c(ccc3ccccc32)oc1=O [Derivative 5c, 3‐Oxo‐N‐(5‐oxo‐3‐phenyl‐1,5‐dihydro‐4H‐1,2,4‐triazol‐4‐yl)‐3H‐benzo[f]chromene‐2‐carboxamide]
IC50 ([1]; Homo sapiens, MCF-10A): 62.8 ± 0.4 µM
